Values joined by “and” are separate entries in the source; they are usually repeats but may differ in a detail not shown here. Equal values may be shown once.
Question: With O=C(Nc1cccc(S(=O)(=O)C(F)(F)F)c1)c1ccc2ccccc2c1O [Example 16, 1-Hydroxy-naphthalene-2-carboxylic acid (3-trifluoromethanesulfonyl-phenyl)-amide] as the compound, how does the melting point read?
Answer: 194 to 195 °C

Question: Which melting point does the source give for O=C(Nc1cccc(SC(F)(F)F)c1)c1ccc2ccccc2c1O [Example 17, 1-Hydroxy-naphthalene-2-carboxylic acid (3-trifluoromethylsulfanyl-phenyl)-amide] here?
Answer: 154 °C

Question: Which melting point does the source give for O=C(Nc1cccc(S(=O)(=O)C(F)(F)F)c1)c1c(O)ccc2ccccc12 [Example 18, 2-Hydroxy-naphthalene-1-carboxylic acid (3-trifluoromethanesulfonyl-phenyl)-amide] here?
Answer: 179 to 180 °C

Question: With O=C(Nc1cccc(S(=O)(=O)C(F)(F)F)c1)c1cc2ccccc2cc1O [Example 19, 3-Hydroxy-naphthalene-2-carboxylic acid (3-trifluoromethanesulfonyl-phenyl)-amide] as the compound, how does the melting point read?
Answer: 212 to 213 °C

Question: For O=C(Nc1ccc(SC(F)(F)F)cc1)c1ccc2c(c1O)CCCC2 [Example 21, 1-Hydroxy-5,6,7,8-tetrahydro-naphthalene-2-carboxylic acid (4-trifluoromethylsulfanyl-phenyl)-amide], which melting point is on record?
Answer: 167 °C

Question: With O=C(Nc1ccc(SC(F)(F)F)cc1)c1cc(S(=O)(=O)c2ccccc2)c2ccccc2c1O [Example 22, 4-Benzenesulfonyl-1-hydroxy-naphthalene-2-carboxylic acid (4-trifluoromethylsulfanyl-phenyl)-amide] as the compound, how does the melting point read?
Answer: 271 to 272 °C

Question: Which melting point does the source give for O=C(Nc1ccc(SC(F)(F)F)cc1)c1cc(Cl)c2ccccc2c1O [Example 23, 4-Chloro-1-hydroxy-naphthalene-2-carboxylic acid (4-trifluoromethylsulfanyl-phenyl)amide] here?
Answer: 172 to 175 °C

Question: For Cc1cc(C(=O)Nc2ccc(S(=O)(=O)C(F)(F)F)cc2Cl)c(O)c(C23CC4CC(CC(C4)C2)C3)c1 [Example 24, 3-Adamantan-1-yl-N-(2-chloro-4-trifluoromethanesulfonyl-phenyl)-2-hydroxy-5-methyl-benzamide], which melting point is on record?
Answer: 203 to 204 °C

Question: Which melting point does the source give for Cc1cc(C(=O)Nc2ccc(S(=O)(=O)C(F)(F)F)cc2Cl)c(O)c(C(C)(C)C)c1 [Example 26, 3-tert-Butyl-N-(2-chloro-4-trifluoromethanesulfonyl-phenyl)-2-hydroxy-5-methylbenzamide] here?
Answer: 209 to 212 °C

Question: Which melting point does the source give for O=C(Nc1ccc(SC(F)(F)F)c(Cl)c1)c1cc(Cl)c2ccccc2c1O [Example 27, 4-Chloro-1-hydroxy-naphthalene-2-carboxylic acid (3-chloro-4-trifluoromethylsulfanyl-phenyl)-amide] here?
Answer: 148 to 149 °C

Question: For O=C(Nc1ccc(S(=O)(=O)C(F)(F)F)cc1Cl)c1c(O)c(C23CC4CC(CC(C4)C2)C3)cc2c1CCCC2 [Example 29], which melting point is on record?
Answer: 205 to 206 °C

Question: With O=C(Nc1ccc(S(=O)(=O)C(F)(F)F)cc1Cl)c1c(O)c(C23CC4CC(CC(C4)C2)C3)cc2c1CCC2 [Example 30, 6-Adamantan-1-yl-5-hydroxy-indan-4-carboxylic acid (2-chloro-4-trifluoromethanesulfonyl-phenyl)-amide] as the compound, how does the melting point read?
Answer: 218 to 219 °C

Question: Which melting point does the source give for O=C(Nc1ccc(S(=O)(=O)C(F)(F)F)cc1Cl)c1cc(Sc2ccc(F)cc2)c2ccccc2c1O [Example 31, 4-(4-Fluoro-phenylsulfanyl)-1-hydroxy-naphthalene-2-carboxylic acid (2-chloro-4-trifluoromethanesulfonyl-phenyl)-amide] here?
Answer: 195 to 198 °C

Question: With O=C(Nc1ccc(S(=O)(=O)C(F)(F)F)cc1Cl)c1cc(-c2ccc(F)cc2F)cc(C23CC4CC(CC(C4)C2)C3)c1O [Example 32, 5-Adamantan-1-yl-2′,4′-difluoro-4-hydroxy-biphenyl-3-carboxylic acid (2-chloro-4-trifluoromethanesulfonyl-phenyl)-amide] as the compound, how does the melting point read?
Answer: 177 to 178 °C

Question: Which melting point does the source give for O=C(Nc1ccc(S(=O)(=O)C(F)(F)F)cc1Cl)c1cc([S+]([O-])c2ccc(F)cc2)c2ccccc2c1O (stereo not shown) [Example 33, 4-(4-Fluoro-benzenesulfinyl)-1-hydroxy-naphthalene-2-carboxylic acid (2-chloro-4-trifluoromethanesulfonyl-phenyl)-amide] here?
Answer: 198 to 199.5 °C

Question: Which melting point does the source give for CC1(c2cc(-c3ccc(F)cc3F)cc(C(=O)Nc3ccc(S(=O)(=O)C(F)(F)F)cc3Cl)c2O)CCCCC1 [Example 35, 2′,4′-Difluoro-4-hydroxy-5-(1-methyl-cyclohexyl)-biphenyl-3-carboxylic acid (2-chloro-4-trifluoromethanesulfonyl-phenyl)-amide] here?
Answer: 114 to 115 °C

Question: Which melting point does the source give for CCc1ccc(C(C)(C)C)c(O)c1C(=O)Nc1ccc(S(=O)(=O)C(F)(F)F)cc1Cl [Example 46, 3-tert-Butyl-N-(2-chloro-4-trifluoromethanesulfonyl-phenyl)-6-ethyl-2-hydroxybenzamide] here?
Answer: 126 to 127 °C

Question: For CCc1c(C(C)(C)C)cc(C(C)(C)C)c(O)c1C(=O)Nc1ccc(S(=O)(=O)C(F)(F)F)cc1Cl [Example 47, 3,5-Di-tert-butyl-N-(2-chloro-4-trifluoromethanesulfonyl-phenyl)-2-ethyl-6-hydroxybenzamide], which melting point is on record?
Answer: 157 to 158 °C

Question: For CC(C)(C)c1cc2c(c(C(=O)Nc3ccc(S(=O)(=O)C(F)(F)F)cc3Cl)c1O)CCC2 [Example 48, 6-tert-Butyl-5-hydroxy-indan-4-carboxylic acid (2-chloro-4-trifluoromethanesulfonylphenyl)-amide], which melting point is on record?
Answer: 172 to 173 °C

Question: With CC(C)(C)c1cc2c(c(C(=O)Nc3ccc(S(=O)(=O)C(F)(F)F)cc3Cl)c1O)CCCC2 [Example 50, 3-tert-Butyl-2-hydroxy-5,6,7,8-tetrahydro-naphthalene-1-carboxylic acid (2-chloro-4-trifluoromethanesulfonyl-phenyl)-amide] as the compound, how does the melting point read?
Answer: 151 °C

Question: With Cc1c([S+](C)[O-])cc(C(C)(C)C)c(O)c1C(=O)Nc1ccc(S(=O)(=O)C(F)(F)F)cc1Cl (stereo not shown) [Example 51, 3-tert-Butyl-N-(2-chloro-4-trifluoromethanesulfonyl-phenyl)-2-hydroxy-5-methanesulfinyl-6-methyl-benzamide] as the compound, how does the melting point read?
Answer: 218 to 219 °C (dec.)

Question: Which melting point does the source give for COc1cc(C(=O)Nc2ccc(S(=O)(=O)C(F)(F)F)cc2Cl)c(O)c(C(C)(C)C)c1 [Example 53, 3-tert-Butyl-N-(2-chloro-4-trifluoromethanesulfonyl-phenyl)-2-hydroxy-5-methoxy-benzamide] here?
Answer: 126 to 127 °C

Question: For CC(C)c1ccc(C(C)(C)C)c(O)c1C(=O)Nc1ccc(S(=O)(=O)C(F)(F)F)cc1Cl [Example 54, 3-tert-Butyl-N-(2-chloro-4-trifluoromethanesulfonyl-phenyl)-2-hydroxy-6-isopropyl-benzamide], which melting point is on record?
Answer: 116 to 116.5 °C

Question: Which melting point does the source give for COc1ccc(C(C)(C)C)c(O)c1C(=O)Nc1ccc(S(=O)(=O)C(F)(F)F)cc1Cl [Example 92, 3-tert-Butyl-N-(2-chloro-4-trifluoromethanesulfonyl-phenyl)-2-hydroxy-6-methoxy-benzamide] here?
Answer: 198 to 199 °C

Question: Which melting point does the source give for COc1cc(C(C)(C)C)c(O)c(C(=O)Nc2ccc(S(=O)(=O)C(F)(F)F)cc2Cl)c1C [Example 93, 3-tert-Butyl-N-(2-chloro-4-trifluoromethanesulfonyl-phenyl)-2-hydroxy-5-methoxy-6-methyl-benzamide] here?
Answer: 121 to 122 °C

Question: For CC(C)(C)c1cc2c(c(C(=O)Nc3ccc(S(=O)(=O)C(F)(F)F)cc3Cl)c1O)CCO2 [Example 94, 6-tert-Butyl-5-hydroxy-2,3-dihydro-benzofuran-4-carboxylic acid (2-chloro-4-trifluoromethanesulfonyl-phenyl)-amide], which melting point is on record?
Answer: 201 to 202 °C

Question: For Cc1c(O)cc(C(C)(C)C)c(O)c1C(=O)Nc1ccc(S(=O)(=O)C(F)(F)F)cc1Cl [Example 95, 3-tert-Butyl-N-(2-chloro-4-trifluoromethanesulfonyl-phenyl)-2,5-dihydroxy-6-methylbenzamide], which melting point is on record?
Answer: 163 to 166 °C

Question: For COc1c(O)cc(C(C)(C)C)c(O)c1C(=O)Nc1ccc(S(=O)(=O)C(F)(F)F)cc1Cl [Example 96, 3-tert-Butyl-N-(2-chloro-4-trifluoromethanesulfonyl-phenyl)-2,5-dihydroxy-6-methoxy-benzamide], which melting point is on record?
Answer: 171 to 175 °C

Question: Which melting point does the source give for COc1cc(C(C)(C)C)c(O)c(C(=O)Nc2ccc(S(=O)(=O)C(F)(F)F)cc2Cl)c1O [Example 97, 3-tert-Butyl-N-(2-chloro-4-trifluoromethanesulfonyl-phenyl)-2,6-dihydroxy-5-methoxy-benzamide] here?
Answer: 170 to 171 °C

Question: Which melting point does the source give for CC(C)(C)c1cc(C(C)(C)C)c(O)c(C(=O)Nc2ccc(S(=O)(=O)C(F)(F)F)cc2Cl)c1O [Example 100, 3,5-Di-tert-butyl-N-(2-chloro-4-trifluoromethanesulfonyl-phenyl)-2,6-dihydroxy-benzamide] here?
Answer: 149 to 150 °C

Question: Which melting point does the source give for CSc1c(C)cc(O)c(C(=O)Nc2ccc(S(=O)(=O)C(F)(F)F)cc2Cl)c1C [Example 163, N-(2-Chloro-4-trifluoromethanesulfonyl-phenyl)-6-hydroxy-2,4-dimethyl-3-methylsulfanyl-benzamide] here?
Answer: 205 to 206 °C and 201 to 202 °C

From patent US20100041657A1, “HALOALKYLSULFONE SUBSTITUTED COMPOUNDS USEFUL FOR TREATING OBESITY AND DIABETES” (NOVO NORDICK A/S, priority 2005, published 2010)
